Test results published in ChEMBL document CHEMBL1201862, “PubChem BioAssay data set” (2004).
Active and inactive are the calls of the source.

Legend:
Cytochrome P450 2C19 = Cytochrome P450 2C19 (Homo sapiens, UniProt P33261); assay: Cytochrome panel assay with activity outcomes. Panel member name: p450-cyp2c19 Compounds with AC50 equal or less than 10 uM are considered active; assay type: functional
Cytochrome P450 2D6 = Cytochrome P450 2D6 (Homo sapiens, UniProt P10635);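 note: CYP2D6 member of a cytochrome P450 panel assay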
Cytochrome P450 1A2 = target: T1, Cytochrome P450 1A2 (Homo sapiens, UniProt P05177);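 note: PubChem cytochrome P450 panel assay, CYP1A2 panel member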
T1 sequence (P05177 whole entry): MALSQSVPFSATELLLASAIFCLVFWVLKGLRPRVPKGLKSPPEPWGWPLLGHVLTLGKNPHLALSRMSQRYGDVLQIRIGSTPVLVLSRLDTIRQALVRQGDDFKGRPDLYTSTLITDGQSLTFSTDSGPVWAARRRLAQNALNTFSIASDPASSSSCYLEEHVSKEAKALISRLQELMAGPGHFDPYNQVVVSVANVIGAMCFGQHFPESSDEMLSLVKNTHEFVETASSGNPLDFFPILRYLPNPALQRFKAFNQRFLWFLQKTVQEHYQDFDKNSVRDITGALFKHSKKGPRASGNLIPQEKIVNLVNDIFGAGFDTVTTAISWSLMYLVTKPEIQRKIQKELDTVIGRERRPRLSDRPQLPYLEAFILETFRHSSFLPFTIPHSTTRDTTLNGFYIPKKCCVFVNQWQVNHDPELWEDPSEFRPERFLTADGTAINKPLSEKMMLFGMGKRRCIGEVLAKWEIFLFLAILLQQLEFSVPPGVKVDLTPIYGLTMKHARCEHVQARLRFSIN

[1] = target: Glucose-6-phosphate 1-dehydrogenase (Homo sapiens, UniProt P11413); assay: human G6PD enzyme inhibitors, dose response, selectivity assay for P. falciparum G6PD inhibitor project, biochemical, fluorescence (AID 504792); assay type: functional
[2] = target: T2, Apoptotic protease-activating factor 1 (Homo sapiens, UniProt O14727); assay: activation of Apaf-1 mediated apoptosis – fluorescent, uHTS hits, dose response (AID 588554); assay type: functional
T2 sequence (O14727 whole entry): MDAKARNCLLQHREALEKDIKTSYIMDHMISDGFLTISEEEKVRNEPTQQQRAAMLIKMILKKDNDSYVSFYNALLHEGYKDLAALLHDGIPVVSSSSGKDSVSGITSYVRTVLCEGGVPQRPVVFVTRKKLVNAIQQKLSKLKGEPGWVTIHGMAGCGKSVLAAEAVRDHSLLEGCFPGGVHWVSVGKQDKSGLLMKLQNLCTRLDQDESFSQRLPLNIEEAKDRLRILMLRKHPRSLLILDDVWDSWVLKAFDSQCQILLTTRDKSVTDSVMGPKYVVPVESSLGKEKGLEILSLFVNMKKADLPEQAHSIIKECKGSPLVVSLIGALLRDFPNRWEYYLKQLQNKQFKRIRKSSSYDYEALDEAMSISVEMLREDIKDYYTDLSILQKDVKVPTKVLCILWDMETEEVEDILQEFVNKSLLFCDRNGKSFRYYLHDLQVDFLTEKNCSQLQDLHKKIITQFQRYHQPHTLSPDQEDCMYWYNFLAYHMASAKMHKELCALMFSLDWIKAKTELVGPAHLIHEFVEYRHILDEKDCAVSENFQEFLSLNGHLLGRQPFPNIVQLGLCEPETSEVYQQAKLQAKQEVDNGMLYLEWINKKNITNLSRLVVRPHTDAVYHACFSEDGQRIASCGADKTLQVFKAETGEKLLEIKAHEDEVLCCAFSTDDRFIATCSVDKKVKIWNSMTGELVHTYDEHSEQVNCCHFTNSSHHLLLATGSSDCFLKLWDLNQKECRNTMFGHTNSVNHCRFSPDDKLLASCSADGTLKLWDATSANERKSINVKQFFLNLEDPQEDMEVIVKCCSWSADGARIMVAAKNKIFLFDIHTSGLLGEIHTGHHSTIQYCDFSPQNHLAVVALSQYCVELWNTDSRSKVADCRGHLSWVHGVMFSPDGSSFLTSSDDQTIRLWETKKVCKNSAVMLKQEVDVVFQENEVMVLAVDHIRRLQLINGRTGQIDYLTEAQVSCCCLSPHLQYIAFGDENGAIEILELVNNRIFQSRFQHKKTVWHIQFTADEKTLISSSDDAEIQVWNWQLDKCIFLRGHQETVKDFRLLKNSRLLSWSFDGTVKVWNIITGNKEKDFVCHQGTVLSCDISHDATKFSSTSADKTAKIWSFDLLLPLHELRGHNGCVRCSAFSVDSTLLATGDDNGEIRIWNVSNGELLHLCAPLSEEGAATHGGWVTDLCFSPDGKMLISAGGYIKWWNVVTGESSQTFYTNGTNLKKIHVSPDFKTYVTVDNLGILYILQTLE

Caspase-7 = Caspase-7 (Homo sapiens, UniProt P55210); assay: human caspase-7 inhibitors, dose response, selectivity assay for caspase-6 inhibitor project, biochemical, DEVD-R110 fluorescence, cherry-pick (AID 743295)
[3] = target: T3, Polyadenylate-binding protein 1 (Homo sapiens, UniProt P11940); assay: PABP1 MLLE–PAM2 interaction inhibitors, dose response, miRNA deadenylation inhibitor project, biochemical, fluorescence polarization, Cy5-PAM2 peptide, secondary (AID 602260); assay type: functional; details: read-out: IC50_Mean
[4] = target: T3, Polyadenylate-binding protein 1; assay: PABP1 MLLE–PAM2 binding inhibitor potency, dose response, biochemical, fluorescence polarization, FITC-PAM2 peptide (AID 602259); assay type: functional; details: read-out: IC50_Mean
Protein RecA = target: T4, Protein RecA (Mycobacterium tuberculosis, UniProt P9WHJ3); assay: Fluorescence Cell-Free Homogeneous Dose Retest to Identify Inhibitors of RecA-Intein Splicing Activity. [Related pubchem assays (depositor defined):AID2097, AID2223, AID489010, AID492950]; assay type: functional
T4 sequence (P9WHJ3 whole entry): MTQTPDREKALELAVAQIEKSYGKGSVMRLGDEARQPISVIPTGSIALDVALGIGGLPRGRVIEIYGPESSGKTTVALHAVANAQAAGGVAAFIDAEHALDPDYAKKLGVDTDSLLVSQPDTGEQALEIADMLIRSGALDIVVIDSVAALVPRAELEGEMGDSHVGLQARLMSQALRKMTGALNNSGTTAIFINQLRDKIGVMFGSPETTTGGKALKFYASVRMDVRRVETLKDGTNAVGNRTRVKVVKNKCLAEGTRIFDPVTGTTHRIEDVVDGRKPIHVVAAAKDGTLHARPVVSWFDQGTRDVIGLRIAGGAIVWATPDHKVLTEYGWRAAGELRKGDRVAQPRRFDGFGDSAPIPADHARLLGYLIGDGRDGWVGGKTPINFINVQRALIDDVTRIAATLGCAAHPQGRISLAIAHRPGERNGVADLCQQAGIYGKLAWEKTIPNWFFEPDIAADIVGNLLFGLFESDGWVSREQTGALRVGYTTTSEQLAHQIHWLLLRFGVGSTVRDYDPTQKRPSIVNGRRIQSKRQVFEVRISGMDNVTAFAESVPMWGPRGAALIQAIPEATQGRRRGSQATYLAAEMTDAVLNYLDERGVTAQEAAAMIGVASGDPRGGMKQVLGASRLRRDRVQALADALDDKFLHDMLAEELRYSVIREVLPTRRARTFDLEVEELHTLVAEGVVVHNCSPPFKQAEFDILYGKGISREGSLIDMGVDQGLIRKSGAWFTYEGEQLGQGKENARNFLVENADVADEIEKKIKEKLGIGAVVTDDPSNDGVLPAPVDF

Caspase-6 = target: T5, Caspase-6 (Homo sapiens, UniProt P55212); assay: human caspase-6 inhibitors, dose response, biochemical, VEID-R110 fluorescence, cherry-pick (AID 720632)
T5 sequence (P55212 whole entry): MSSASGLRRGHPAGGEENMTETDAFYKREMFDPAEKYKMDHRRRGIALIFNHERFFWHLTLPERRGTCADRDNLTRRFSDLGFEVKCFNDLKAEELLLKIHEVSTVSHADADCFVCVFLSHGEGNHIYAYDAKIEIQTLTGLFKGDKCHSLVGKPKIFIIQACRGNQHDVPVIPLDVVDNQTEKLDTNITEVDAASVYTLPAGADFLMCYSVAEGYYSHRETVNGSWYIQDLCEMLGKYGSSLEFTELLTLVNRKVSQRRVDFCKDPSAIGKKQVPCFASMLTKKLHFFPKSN

[5] = target: T2, Apoptotic protease-activating factor 1; assay: SAR analysis of small molecule Activators of Apaf-1 in a Fluorescent assay.; assay type: functional; details: read-out: EC50_Mean
[6] = target: T6, Replicative DNA helicase DnaB (Mycobacterium tuberculosis, UniProt P9WMR3); assay: DnaB intein splicing inhibitors, dose response, biochemical, cell-free fluorescence (AID 449749); assay type: functional
T6 sequence (P9WMR3 whole entry): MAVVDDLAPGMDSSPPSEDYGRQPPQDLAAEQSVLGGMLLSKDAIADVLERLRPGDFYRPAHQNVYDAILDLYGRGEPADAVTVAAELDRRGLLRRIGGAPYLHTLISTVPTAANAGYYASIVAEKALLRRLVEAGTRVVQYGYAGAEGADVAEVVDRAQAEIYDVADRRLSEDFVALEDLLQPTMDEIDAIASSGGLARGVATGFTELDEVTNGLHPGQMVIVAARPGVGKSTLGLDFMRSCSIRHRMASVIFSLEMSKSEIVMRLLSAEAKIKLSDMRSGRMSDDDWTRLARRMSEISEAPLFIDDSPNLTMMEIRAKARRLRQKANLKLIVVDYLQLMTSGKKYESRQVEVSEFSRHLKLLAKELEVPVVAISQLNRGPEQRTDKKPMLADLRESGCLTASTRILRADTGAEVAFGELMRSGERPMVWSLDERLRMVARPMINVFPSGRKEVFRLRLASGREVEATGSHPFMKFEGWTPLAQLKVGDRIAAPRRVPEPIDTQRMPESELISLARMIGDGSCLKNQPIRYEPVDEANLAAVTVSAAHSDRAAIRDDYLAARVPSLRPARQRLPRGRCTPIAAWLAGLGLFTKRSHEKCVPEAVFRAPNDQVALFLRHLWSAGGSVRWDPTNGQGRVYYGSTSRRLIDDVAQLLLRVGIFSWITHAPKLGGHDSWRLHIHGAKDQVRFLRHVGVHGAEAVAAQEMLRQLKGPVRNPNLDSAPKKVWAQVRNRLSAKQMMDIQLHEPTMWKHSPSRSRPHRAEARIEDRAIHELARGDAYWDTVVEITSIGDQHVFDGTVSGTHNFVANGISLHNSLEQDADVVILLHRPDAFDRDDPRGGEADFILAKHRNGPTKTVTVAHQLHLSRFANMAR

[7] = growth induction of Burl-1 ts yeast mutant, dose response, counter-screen for SUMOylation pathway inhibitor project, whole organism, S. cerevisiae, luminescence (AID 463199); assay type: functional
[8] = target: T7, Probable nicotinate-nucleotide adenylyltransferase (Staphylococcus aureus (strain N315), UniProt P65502); assay type: functional, Staphylococcus aureus subsp. aureus N315;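 for IC50 Mean: confirmatory dose-response retesting of NadD inhibitor hits first found in an ultra-high-throughput screen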
[9] = target: T8, Dual specificity protein phosphatase 3 (Homo sapiens, UniProt P51452); assay: SAR VHR1 absorbance Assay for In Vitro dose response studies. [Related pubchem assays (depositor defined):AID1654, AID1661, AID1878, AID1992, AID2004]
Fatty acid synthase [10] = target: T9, Fatty acid synthase (Homo sapiens, UniProt P49327); assay: FAS thioesterase domain inhibitors, dose response, biochemical, kinetic fluorescence intensity (AID 624326); assay type: functional;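 note: rate of fluorescence rise from hydrolysis of a fluorogenic O-methyl fluorescein ester substrate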
[11] = target: T7, Probable nicotinate-nucleotide adenylyltransferase; assay type: functional, Staphylococcus aureus subsp. aureus N315; details: read-out: IC50_Mean
[12] = target: T10, Dual specificity protein phosphatase 6 (Rattus norvegicus, UniProt Q64346); assay type: functional;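 note: confirmatory in vitro dose-response testing of MKP-3 inhibition; recombinant His-tagged MKP-3 made in E. coli BL21 with OMFP substrate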
T10 sequence (Q64346 whole entry): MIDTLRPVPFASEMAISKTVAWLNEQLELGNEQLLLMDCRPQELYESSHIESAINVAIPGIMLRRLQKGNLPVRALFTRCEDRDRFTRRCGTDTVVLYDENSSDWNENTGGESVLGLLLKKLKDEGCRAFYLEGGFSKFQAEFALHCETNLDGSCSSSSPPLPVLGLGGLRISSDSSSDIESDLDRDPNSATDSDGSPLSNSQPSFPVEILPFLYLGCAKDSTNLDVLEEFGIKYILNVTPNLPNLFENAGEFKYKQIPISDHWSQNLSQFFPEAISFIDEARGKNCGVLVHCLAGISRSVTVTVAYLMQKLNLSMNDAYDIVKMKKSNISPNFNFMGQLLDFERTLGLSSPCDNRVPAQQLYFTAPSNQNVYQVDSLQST

Fatty acid synthase [13] = target: T9, Fatty acid synthase; assay: FAS thioesterase domain inhibitors, dose response, biochemical, endpoint fluorescence intensity, uHTS hits (AID 624327); assay type: functional;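 note: fluorescence from hydrolysis of an O-methyl fluorescein acyl ester substrate by the enzyme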
[14] = target: T8, Dual specificity protein phosphatase 3; assay: SAR VHR1 Fluorescent Assay for In Vitro dose response studies Set 2. [Related pubchem assays (depositor defined):AID1654, AID1661, AID1878]; assay type: functional
Vero = Vero cell cytotoxicity, cytotoxicity control for flavivirus capping enzyme inhibitors (AID 588742); assay type: functional; details: Chlorocebus sabaeus
[15] = target: T8, Dual specificity protein phosphatase 3; assay: SAR VHR1 Fluorescent Assay for In Vitro dose response studies. [Related pubchem assays (depositor defined):AID1654, AID1661, AID1878, AID1992, AID2004, AID2070, AID2085]; assay type: functional
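Throughout, for EC50 Mean: caspase-3 cleavage of fluorogenic Rh110 DEVD substrate downstream of apoptosome activation.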

T8 sequence (P51452 whole entry, the tested form may be a part): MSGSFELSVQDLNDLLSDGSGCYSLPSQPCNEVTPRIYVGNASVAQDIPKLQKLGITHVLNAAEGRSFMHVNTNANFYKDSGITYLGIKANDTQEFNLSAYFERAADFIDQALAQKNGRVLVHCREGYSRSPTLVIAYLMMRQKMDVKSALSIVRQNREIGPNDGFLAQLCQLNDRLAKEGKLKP
T7 sequence (P65502 whole entry): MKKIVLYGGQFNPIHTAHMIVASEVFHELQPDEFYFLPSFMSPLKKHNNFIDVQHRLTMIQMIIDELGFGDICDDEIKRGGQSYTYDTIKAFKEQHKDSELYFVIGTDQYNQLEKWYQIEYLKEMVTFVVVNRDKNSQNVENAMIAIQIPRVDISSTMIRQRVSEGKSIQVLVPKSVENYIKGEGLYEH
T3 sequence (P11940 whole entry): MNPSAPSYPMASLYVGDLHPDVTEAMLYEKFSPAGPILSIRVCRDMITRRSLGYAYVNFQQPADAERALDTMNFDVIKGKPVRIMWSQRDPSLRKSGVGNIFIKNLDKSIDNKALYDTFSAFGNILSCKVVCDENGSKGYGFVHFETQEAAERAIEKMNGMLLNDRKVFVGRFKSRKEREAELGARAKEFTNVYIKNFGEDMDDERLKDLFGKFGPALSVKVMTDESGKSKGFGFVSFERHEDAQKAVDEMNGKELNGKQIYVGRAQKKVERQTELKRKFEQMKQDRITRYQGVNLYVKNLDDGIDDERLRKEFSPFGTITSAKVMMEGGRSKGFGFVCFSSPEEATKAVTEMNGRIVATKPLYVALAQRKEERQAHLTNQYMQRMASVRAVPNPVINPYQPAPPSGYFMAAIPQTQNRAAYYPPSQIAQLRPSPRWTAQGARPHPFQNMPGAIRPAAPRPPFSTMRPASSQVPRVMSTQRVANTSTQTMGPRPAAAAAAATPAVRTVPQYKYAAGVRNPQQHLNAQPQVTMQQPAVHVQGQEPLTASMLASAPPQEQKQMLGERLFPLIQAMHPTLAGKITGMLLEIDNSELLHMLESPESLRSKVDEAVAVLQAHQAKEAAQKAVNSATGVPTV
T9 sequence (P49327 whole entry, the tested form may be a part): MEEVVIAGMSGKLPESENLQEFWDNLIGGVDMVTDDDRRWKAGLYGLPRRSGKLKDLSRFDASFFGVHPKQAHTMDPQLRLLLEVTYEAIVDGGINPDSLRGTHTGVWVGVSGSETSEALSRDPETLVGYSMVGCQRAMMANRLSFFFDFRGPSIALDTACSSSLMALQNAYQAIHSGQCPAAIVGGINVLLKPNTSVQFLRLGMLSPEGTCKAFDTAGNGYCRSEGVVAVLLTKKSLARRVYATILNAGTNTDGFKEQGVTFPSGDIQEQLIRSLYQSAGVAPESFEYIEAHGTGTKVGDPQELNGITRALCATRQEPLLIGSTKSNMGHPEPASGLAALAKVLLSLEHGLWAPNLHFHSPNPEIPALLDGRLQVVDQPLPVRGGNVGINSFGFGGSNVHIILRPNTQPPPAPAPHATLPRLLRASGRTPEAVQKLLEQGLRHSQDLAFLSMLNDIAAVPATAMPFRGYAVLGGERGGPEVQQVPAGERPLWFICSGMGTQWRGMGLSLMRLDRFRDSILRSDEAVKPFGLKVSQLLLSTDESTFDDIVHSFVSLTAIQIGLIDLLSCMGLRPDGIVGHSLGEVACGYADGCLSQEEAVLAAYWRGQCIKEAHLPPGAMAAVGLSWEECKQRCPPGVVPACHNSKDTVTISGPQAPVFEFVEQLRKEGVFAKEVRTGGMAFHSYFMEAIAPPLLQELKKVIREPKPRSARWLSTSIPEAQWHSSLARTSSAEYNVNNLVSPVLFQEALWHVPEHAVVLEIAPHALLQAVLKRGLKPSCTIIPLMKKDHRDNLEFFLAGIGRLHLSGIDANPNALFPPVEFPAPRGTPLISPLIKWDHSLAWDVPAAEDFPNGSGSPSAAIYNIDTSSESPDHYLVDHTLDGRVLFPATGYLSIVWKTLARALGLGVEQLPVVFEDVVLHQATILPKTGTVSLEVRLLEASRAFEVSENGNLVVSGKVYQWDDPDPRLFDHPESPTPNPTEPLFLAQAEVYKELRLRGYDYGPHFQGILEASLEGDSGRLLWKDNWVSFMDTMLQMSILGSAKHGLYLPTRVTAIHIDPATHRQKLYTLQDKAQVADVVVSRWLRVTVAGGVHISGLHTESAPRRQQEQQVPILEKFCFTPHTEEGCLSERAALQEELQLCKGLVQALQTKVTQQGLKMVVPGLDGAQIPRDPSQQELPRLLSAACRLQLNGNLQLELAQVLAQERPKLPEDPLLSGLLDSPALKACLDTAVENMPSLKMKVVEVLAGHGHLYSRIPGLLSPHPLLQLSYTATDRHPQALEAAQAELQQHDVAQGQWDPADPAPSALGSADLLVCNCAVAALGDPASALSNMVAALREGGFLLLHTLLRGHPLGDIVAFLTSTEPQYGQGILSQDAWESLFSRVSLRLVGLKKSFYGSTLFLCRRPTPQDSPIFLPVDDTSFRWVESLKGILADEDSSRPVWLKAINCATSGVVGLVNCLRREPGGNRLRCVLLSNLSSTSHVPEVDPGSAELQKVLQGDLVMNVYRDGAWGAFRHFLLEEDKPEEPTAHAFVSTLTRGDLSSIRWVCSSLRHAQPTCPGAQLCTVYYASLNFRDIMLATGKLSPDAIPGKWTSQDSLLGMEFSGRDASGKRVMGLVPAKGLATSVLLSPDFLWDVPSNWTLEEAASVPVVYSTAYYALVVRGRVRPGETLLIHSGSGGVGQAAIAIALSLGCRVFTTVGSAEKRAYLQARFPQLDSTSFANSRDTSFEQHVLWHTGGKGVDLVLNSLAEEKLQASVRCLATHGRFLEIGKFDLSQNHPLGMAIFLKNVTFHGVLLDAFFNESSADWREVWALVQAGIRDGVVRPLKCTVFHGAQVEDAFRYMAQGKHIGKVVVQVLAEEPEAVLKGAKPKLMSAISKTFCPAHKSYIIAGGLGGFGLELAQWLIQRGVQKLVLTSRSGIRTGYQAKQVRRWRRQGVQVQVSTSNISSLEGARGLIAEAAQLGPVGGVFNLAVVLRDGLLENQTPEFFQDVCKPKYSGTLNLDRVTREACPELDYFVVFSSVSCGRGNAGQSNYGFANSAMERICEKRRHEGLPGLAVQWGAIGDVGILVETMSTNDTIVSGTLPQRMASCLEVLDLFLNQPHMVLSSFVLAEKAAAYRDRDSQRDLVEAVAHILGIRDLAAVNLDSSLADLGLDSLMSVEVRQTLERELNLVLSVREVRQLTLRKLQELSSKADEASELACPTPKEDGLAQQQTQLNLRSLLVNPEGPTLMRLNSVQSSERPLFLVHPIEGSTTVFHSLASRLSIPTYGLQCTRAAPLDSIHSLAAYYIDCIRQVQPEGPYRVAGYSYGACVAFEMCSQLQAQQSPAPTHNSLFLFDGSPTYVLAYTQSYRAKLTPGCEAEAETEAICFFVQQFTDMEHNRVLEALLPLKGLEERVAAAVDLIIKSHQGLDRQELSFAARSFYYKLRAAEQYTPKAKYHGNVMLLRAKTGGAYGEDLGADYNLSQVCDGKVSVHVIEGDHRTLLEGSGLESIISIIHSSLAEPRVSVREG
Glucose-6-phosphate 1-dehydrogenase, sequence (P11413 whole entry): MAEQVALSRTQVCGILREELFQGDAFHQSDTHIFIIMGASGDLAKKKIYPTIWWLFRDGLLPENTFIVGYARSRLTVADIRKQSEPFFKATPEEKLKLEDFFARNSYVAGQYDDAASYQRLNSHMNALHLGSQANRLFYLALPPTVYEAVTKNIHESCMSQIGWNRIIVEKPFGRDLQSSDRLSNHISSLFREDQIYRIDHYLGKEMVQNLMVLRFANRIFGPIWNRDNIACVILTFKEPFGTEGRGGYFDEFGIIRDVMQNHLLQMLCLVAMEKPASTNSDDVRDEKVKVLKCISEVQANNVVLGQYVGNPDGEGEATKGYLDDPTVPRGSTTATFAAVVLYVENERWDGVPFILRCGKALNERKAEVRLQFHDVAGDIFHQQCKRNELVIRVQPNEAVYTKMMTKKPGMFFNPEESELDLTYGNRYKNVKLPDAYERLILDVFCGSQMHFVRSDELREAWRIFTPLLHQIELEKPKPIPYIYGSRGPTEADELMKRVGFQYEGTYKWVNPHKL
Caspase-7, sequence (P55210 24-198 limits assumed): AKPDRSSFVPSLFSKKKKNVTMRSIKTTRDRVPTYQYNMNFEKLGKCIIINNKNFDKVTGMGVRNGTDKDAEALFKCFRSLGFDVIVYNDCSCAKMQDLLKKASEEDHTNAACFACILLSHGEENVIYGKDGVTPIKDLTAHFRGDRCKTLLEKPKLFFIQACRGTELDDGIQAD
Caspase-7, sequence (P55210 207-303 limits assumed): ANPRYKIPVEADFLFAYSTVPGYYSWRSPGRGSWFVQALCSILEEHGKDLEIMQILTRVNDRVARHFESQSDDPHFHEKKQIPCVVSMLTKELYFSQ
Cytochrome P450 2D6, sequence (P10635 whole entry): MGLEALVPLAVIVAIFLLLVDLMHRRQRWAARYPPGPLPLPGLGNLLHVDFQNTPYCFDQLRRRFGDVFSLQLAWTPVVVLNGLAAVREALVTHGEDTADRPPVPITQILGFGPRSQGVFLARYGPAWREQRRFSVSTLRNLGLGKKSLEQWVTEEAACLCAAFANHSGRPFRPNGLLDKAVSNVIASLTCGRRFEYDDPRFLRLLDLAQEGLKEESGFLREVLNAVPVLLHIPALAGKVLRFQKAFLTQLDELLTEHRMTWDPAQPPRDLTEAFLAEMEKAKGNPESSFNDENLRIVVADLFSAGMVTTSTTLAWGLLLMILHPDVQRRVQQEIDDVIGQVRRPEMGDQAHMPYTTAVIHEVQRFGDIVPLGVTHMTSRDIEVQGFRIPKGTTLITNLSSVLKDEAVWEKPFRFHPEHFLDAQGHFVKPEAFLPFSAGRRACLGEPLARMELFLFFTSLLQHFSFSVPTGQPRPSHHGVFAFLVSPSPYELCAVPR

In the case of CN(C)CCN(c1ccccn1)c1ccccn1, the AC50 (Cytochrome P450 2C19) is reported as “inconclusive”, the AC50 (Cytochrome P450 2D6) is reported as 3.98 µM (inconclusive) and the AC50 (Cytochrome P450 1A2) is reported as “inconclusive”.

In the case of CC(CNc1ccccc1O)C(=O)O (configuration not stated), the IC50 [1] is reported as > 80 µM (inactive), the EC50 [2] is reported as 14 µM (active) and the AC50 (Caspase-7) is reported as > 70 µM (inactive). The IC50 [3] was > 66 µM (inactive), the IC50 [4] was > 66 µM (inactive) and the EC50 (Protein RecA) was 7.79 µM (active). For the same compound, the AC50 (Caspase-6) was 3.52 µM (active), the EC50 [5] was > 100 µM (inactive) and the AC50 [6] was 28.7 µM (active).

In the case of CCOC(=O)c1c(CN2CCCCC2)n(C)c2cc(Br)c(O)c(CN(C)C)c12, the AC50 [7] is reported as 52.5 µM (active).

In the case of O=C(O)CSc1cc(C(=O)c2ccccc2O)cn2c(=O)c3c(-c4ccccc4)csc3nc12, the IC50 [8] is reported as 7.1 µM (active), the IC50 [9] is reported as 1.93 µM (active) and the IC50 (Fatty acid synthase [10]) is reported as 4.3 µM (active). The IC50 [11] was 28.4 µM (active), the IC50 [12] was 13.2 µM (active) and the IC50 (Fatty acid synthase [13]) was 4.85 µM (active). For the same compound, the IC50 [14] was 12.3 µM (active), the CC50 (Vero) was 38.8 µM (active) and the IC50 [15] was 14.6 µM (active).
